Test results: patent US8895538B2, “Combination and composition that contains an antimicrobial, a glucocorticoid and an antimycotic” (Laboratories Senosiain S.A. de C.V., priority 2009, dated 2014)

What was measured:
[1] = cited from earlier work
mice = settings: administered orally; cited from earlier work
[2] = in vivo; cited from earlier work
rats = settings: administered orally; cited from earlier work
[3] = Laboratory assays of sensitivity, solubility and stability of the active agents at different pH conditions; assay type: physicochemical
Procedure: Laboratory assays were carried out for verifying the sensitivity, solubility and stability of the active agents at different pH conditions. Thus, their stability was tested at different pH conditions. Due to the sensitivity of the active agents, the addition order of these components, as well as the excipient and vehicle selection are of great importance for avoiding degradation or incompatibilities of said active agents.

In the case of `Clc1ccccc1C(c1ccccc1)(c1ccccc1)n1ccnc1` [Clotrimazole], the “hydrolysis in acid solution at high temperature” value ([1]; acid solution, high temperature) is listed as “rapidly hydrolised”, the LD50 (mice) is listed as 923 mg/kg and the “absorbed in topical applications” value [2] is listed as 3-10 % of the dose. For the same molecule, the LD50 (rats) was 708 mg/kg.

For `C[C@H]1C[C@H]2[C@@H]3CCC4=CC(=O)C=C[C@]4(C)[C@@]3(F)[C@@H](O)C[C@]2(C)[C@@]1(O)C(=O)CO` [Betametasone], the solubility in water ([1]; water) is given as “almost insoluble”.

In the case of `CC(=O)O[C@H]1C[C@@]2(C)[C@@H](C[C@@H](O)[C@H]3[C@@]4(C)CC[C@@H](O)[C@@H](C)[C@@H]4CC[C@@]32C)/C1=C(\CCC=C(C)C)C(=O)O` [Fusidic acid], the “stability in the presence of acid substances” value [3] is reported as “greatly reduced”.
